From patent US20230089247A1, “NOVEL COMPOUNDS SUITABLE FOR THE TREATMENT OF DYSLIPIDEMIA” (ZYDUS LIFESCIENCES LIMITED, priority 2019, published 2023)

Target: PCSK9 (Homo sapiens, UniProt Q8NBP7)
Assay: BODIPY-LDL uptake assay in HepG2 cells
Assay type: cell-based
Settings: 5 μg/ml PCSK9, BODIPY-LDL
Procedure: BODIPY-LDL Uptake Assay in HepG2 Cells.
An established assay for PCSK9 inhibition features uptake of fluorescently labeled LDL nanoparticles (BODIPY-LDL) by hepatocytes and uptake of the BODIPY-containing particles is maximized in the absence of PCSK9.
In the LDL uptake assay, HepG2 cells were seeded at a density of 6×10^4 cells/well in a 96-well plate. After 24 h, the test compounds at various concentrations were pre-incubated with 5 μg/ml PCSK9 in 0.2% DMSO for 60 min prior to the addition on to the cells. After 16 h the medium was removed and 1 μg/ml BODIPY-LDL (Invitrogen) in serum free media was added and incubated for 5 h. Then the cells were washed twice with 0.25% BSA in PBS. Then the fluorescence of the cells in PBS was measured using TECAN multimode reader (Excitation: 485 nm and Emission: 520 nm). The readings were taken in triplicate and the final values were normalized with the protein concentration from respective wells. The wells without test compound containing external PCSK9 is considered as zero uptake and the one without PCSK9 was considered as 100% uptake. The percentage increase in LDL uptake for the test compounds were calculated using these values.

Chain of PCSK9 (Q8NBP7 153-692): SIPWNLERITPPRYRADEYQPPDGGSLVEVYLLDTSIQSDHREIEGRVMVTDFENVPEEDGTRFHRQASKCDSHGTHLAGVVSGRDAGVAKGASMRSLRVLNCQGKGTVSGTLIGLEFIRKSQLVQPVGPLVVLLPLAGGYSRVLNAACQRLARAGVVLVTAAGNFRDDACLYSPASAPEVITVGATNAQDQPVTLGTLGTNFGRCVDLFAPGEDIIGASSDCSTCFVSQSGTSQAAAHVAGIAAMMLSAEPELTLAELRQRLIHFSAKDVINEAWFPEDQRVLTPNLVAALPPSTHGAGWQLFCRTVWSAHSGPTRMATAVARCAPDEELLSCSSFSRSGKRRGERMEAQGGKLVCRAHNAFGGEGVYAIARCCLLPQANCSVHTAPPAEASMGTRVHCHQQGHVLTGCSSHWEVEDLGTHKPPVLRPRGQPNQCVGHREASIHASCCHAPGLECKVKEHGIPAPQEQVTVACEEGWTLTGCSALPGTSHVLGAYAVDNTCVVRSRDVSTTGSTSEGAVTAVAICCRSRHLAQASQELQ

SMILES	% increase in LDL Uptake (1 μM test compound)	% increase in LDL Uptake (10 μM test compound)	% increase in LDL Uptake (30 μM test compound)
CN1CCN(c2cc(NC(=O)C3CCN(c4ccc(C(F)(F)F)cc4)CC3)cc(C3(O)COC3)c2)CC1 [Example 201, N-(3-(3-hydroxyoxetan-3-yl)-5-(4-methylpiperazin-1-yl)phenyl)-1-(4-(trifluoromethyl)phenyl)piperidine-4-carboxamide]	0%	0%	73%
O=C(c1cccc(C2(O)COC2)c1)N1CCC2(CC1)CCN(c1ccc(C(F)(F)F)cc1)CC2 [Example 100, (3-(3-hydroxyoxetan-3-yl)phenyl)(9-(4-(trifluoromethyl)phenyl)-3,9-diazaspiro[5.5]undecan-3-yl)methanone]	29%	0%	0%
CCOC1(c2ccc(C(=O)N3CCN(c4ccc(C(F)(F)F)cn4)CC3)cc2)COC1 [Example 219, (4-(3-ethoxyoxetan-3-yl)phenyl)(4-(5-(trifluoromethyl)pyridin-2-yl)piperazin-1-yl)methanone]	4%	41%	15%
OC1(c2cc(N3CCOCC3)cc(N3CCC(c4ccc(C(F)(F)F)cc4)CC3)c2)COC1 [Example 84, 3-(3-morpholino-5-(4-(4-(trifluoromethyl)phenyl)piperidin-1-yl)phenyl) oxetan-3-ol]	6%	13%	17%
Cn1nc(-c2ccc(C(F)(F)F)cc2)c2c1CN(C(=O)c1ccc(C3(O)COC3)cc1)C2 [Example 20, (4-(3-hydroxyoxetan-3-yl)phenyl)(1-methyl-3-(4-(trifluoromethyl)phenyl)-4,6-dihydropyrrolo[3,4-c]pyrazol-5(1H)-yl)methanone]	0%	7%	18%
COC1(c2ccc(NC(=O)N3CC4CN(c5ccc(C(F)(F)F)cc5)CC4C3)cc2)COC1 (stereo not drawn) [Example 74, N-(4-(3-methoxyoxetan-3-yl)phenyl)-5-(4-(trifluoromethyl)phenyl) hexahydropyrrolo[3,4-c]pyrrole-2(1H)-carboxamide]	34%	42%	100%
COC1(c2cccc(C(=O)N3CC4=C(C3)CN(c3ccc(C(F)(F)F)cc3)C4)c2)COC1 [Example 97, (3-(3-methoxyoxetan-3-yl)phenyl)(5-(4-(trifluoromethyl)phenyl)-3,4,5,6-tetrahydropyrrolo[3,4-c]pyrrol-2(1H)-yl)methanone]	0%	0%	24%
COC1(c2ccc(C3(O)CCN(c4ccc(C(F)(F)F)cc4)CC3)cc2)COC1 [Example 73, 4-(4-(3-methoxyoxetan-3-yl)phenyl)-1-(4-(trifluoromethyl)phenyl) piperidin-4-ol]	0%	8%	0%
COC1(c2ccc(C(=O)N3CC4CN(c5ccc(C(F)(F)F)cn5)CC4C3)cc2)COC1 (stereo not drawn) [Example 209, (4-(3-methoxyoxetan-3-yl)phenyl)(5-(5-(trifluoromethyl)pyridin-2-yl)hexahydropyrrolo[3,4-c]pyrrol-2(1H)-yl)methanone]	20%	137%	21%
O=C(c1ccc(C2(O)COC2)cc1)N1Cc2cn(-c3ccc(C(F)(F)F)cc3)nc2C1 [Example 89, (4-(3-hydroxyoxetan-3-yl)phenyl)(2-(4-(trifluoromethyl)phenyl)-2,6-dihydropyrrolo[3,4-c]pyrazol-5(4H)-yl)methanone]	0%	5%	159%
O=C(c1ccc(C2(O)CSC2)cc1)N1CC2CN(c3ccc(C(F)(F)F)cc3)CC2C1 (stereo not drawn) [Example 146, (4-(3-hydroxythietan-3-yl)phenyl)(5-(4-(trifluoromethyl)phenyl)hexahydropyrrolo[3,4-c]pyrrol-2(1H)-yl)methanone]	53%	212%	29%

Other lines, results leading:

% increase in LDL Uptake (1 μM test compound)	% increase in LDL Uptake (10 μM test compound)	% increase in LDL Uptake (30 μM test compound)	SMILES
0%	19%	14%	O=C(c1ccc(C2(O)COC2)cc1)N1CCC(c2ccc(OC(F)(F)F)cc2)CC1 [Example 22, (4-(3-hydroxyoxetan-3-yl)phenyl)(4-(4-(trifluoromethoxy)phenyl)piperidin-1-yl)methanone]
31%	56%	77%	CC(C)OC1(c2ccc(C(=O)N3CCC(c4ccc(C(F)(F)F)cc4)CC3)cc2)COC1 [Example 44, (4-(3-isopropoxyoxetan-3-yl)phenyl)(4-(4-(trifluoromethyl)phenyl)piperidin-1-yl)methanone]
0%	17%	49%	Cc1ccc(C2CCN(C(=O)c3ccc(C4(O)COC4)cc3)CC2)cc1Cl [Example 29, (4-(3-chloro-4-methylphenyl)piperidin-1-yl)(4-(3-hydroxyoxetan-3-yl)phenyl)methanone]
0%	9%	66%	COC1(c2cccc(C(=O)N3CCC(c4ccc(C(F)F)cc4)CC3)c2)COC1 [Example 65, (4-(4-(difluoromethyl)phenyl)piperidin-1-yl)(3-(3-methoxyoxetan-3-yl)phenyl)methanone]
0%	9%	17%	CC(=O)OC1(c2ccc(C(=O)N3CCC(c4ccc(C(F)(F)F)cc4)CC3)cc2)COC1 [Example 36, 3-(4-(4-(4-(trifluoromethyl)phenyl)piperidine-1-carbonyl)phenyl) oxetan-3-yl acetate]
0%	152%	136%	O=C(c1ccc(C2(OCCO)COC2)cc1)N1CCC(c2ccc(C(F)(F)F)cc2)CC1 [Example 188, (4-(3-(2-hydroxyethoxy)oxetan-3-yl)phenyl)(4-(4-(trifluoromethyl)phenyl)piperidin-1-yl)methanone]
15%	21%	33%	COc1ccc(C2CCN(C(=O)c3ccc(C4(O)COC4)cc3)CC2)cc1Cl [Example 26, (4-(3-chloro-4-methoxyphenyl)piperidin-1-yl)(4-(3-hydroxyoxetan-3-yl)phenyl)methanone]
0%	42%	0%	COC1(c2ccc(C(=O)N3CCC(c4ccc(C(F)(F)F)cc4)CC3)cc2)CCN(C(C)=O)CC1 [Example 158, 1-(4-methoxy-4-(4-(4-(4-(trifluoromethyl)phenyl)piperidine-1-carbonyl)phenyl)piperidin-1-yl)ethan-1-one]
0%	16%	12%	O=C(c1cccc(C2(O)COC2)c1)N1CCC(c2ccccc2C(F)(F)F)CC1 [Example 122, (3-(3-hydroxyoxetan-3-yl)phenyl)(4-(2-(trifluoromethyl)phenyl)piperidin-1-yl)methanone]
